As usually defined, the IC50 is the concentration at which inhibition is half-maximal.

Here are results for eleven compounds from patent US7419969B2 (Bristol-Myers Squibb Company, priority 2004, dated 2008).

The target of one assay is T1, HIV-integrase (Human immunodeficiency virus type 1 group M subtype B, UniProt P04585).
T1 construct: Recombinant integrase (0.26 ng) was incubated with the beads
Briefly: in-vitro activity against HIV-integrase (HIV Integrase Inhibition, SPA bead assay). The class given is biochemical. The conditions noted are these: Table 1; recombinant integrase, activity class. The method in brief:
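Recombinant integrase (0.26 ng) pre-bound for 90 min at 37 °C to biotinylated substrate DNA on streptavidin SPA beads, then washed. Inhibitors added with 33P-labelled target DNA; reaction stopped with 10 mM EDTA. Scintillation CPM taken as integration signal.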
Regarding `Cc1ccc(CNC(=O)c2nc3n(c(=O)c2O)CCCC32CCC2)cc1F` [Example 73, N-[(3-fluoro-4-methylphenyl)methyl]-7′,8′-dihydro-3′-hydroxy-4′-oxo-spiro[cyclobutane-1,9′(6′H)-[4H]pyrido[1,2-α]pyrimidine]-2′-carboxamide], the half-inhibitory concentration (IC50) was 0.001 to 0.01 µM.
With `Cc1cc(CNC(=O)c2nc3n(c(=O)c2O)CCOC32CCOC2)ccc1F` (centres unmarked) [Example 37, N-[(4-fluoro-3-methylphenyl)methyl]-4,5,6′,7′-tetrahydro-3′-hydroxy-4′-oxo-spiro[furan-3(2H),9′(4′H)-pyrimido[2,1-c][1,4]oxazine]-2′-carboxamide], the 50% inhibitory concentration (IC50) lay within 0.001 to 0.01 µM.
Same read-out and setting: in the case of `COc1ccc(CNC(=O)c2nc3n(c(=O)c2O)CCCC32CCC2)c(OC)c1` [Example 71, N-[(2,4-dimethoxyphenyl)methyl]-7′,8′-dihydro-3′-hydroxy-4′-oxo-spiro[cyclobutane-1,9′(6′H)-[4H]pyrido[1,2-α]pyrimidine]-2′-carboxamide] it was 0.01 to 0.1 µM; in that of `O=C(NCc1ccccc1-n1cncn1)c1nc2n(c(=O)c1O)CCCC21CCC1` [Example 80, N-[[2-(1H-1,2,4-triazol-1-yl)phenyl]methyl]-7′,8′-dihydro-3′-hydroxy-4′-oxo-spiro[cyclobutane-1,9′(6′H)-[4H]pyrido[1,2-α]pyrimidine]-2′-carboxamide], 0.001 to 0.01 µM.
Still for that read-out and setting: under `O=C(NCc1ccc(F)cc1-n1cncn1)c1nc2n(c(=O)c1O)CCCOC21CCC1` [Example 60, N-[[4-fluoro-2-(1 H-1,2,4-triazol-1-yl)phenyl]methyl]-7′,8′-dihydro-3′-hydroxy-4′-oxo-spiro[cyclobutane-1,10′(4′H)-[6H]pyrimido[2,1-c][1,4]oxazepine]-2′-carboxamide] stands 0.001 to 0.01 µM.
For the compound `CN(C)S(=O)(=O)c1cc(F)ccc1CNC(=O)c1nc2n(c(=O)c1O)CCCOC21CCC1` [Example 61], the IC50 is 0.01 to 0.1 µM.
On to `CSc1cc(F)ccc1CNC(=O)c1nc2n(c(=O)c1O)CCOC21CCOC1` (centres unmarked) [Example 39, N-[[4-fluoro-2-(methylthio)phenyl]methyl]-4,5,6′,7′-tetrahydro-3′-hydroxy-4′-oxo-spiro[furan-3(2H),9′(4′H)-pyrimido[2,1-c][1,4]oxazine]-2′-carboxamide], for which the IC50 is 0.001 to 0.01 µM.

The same assay, now with this note: Table 1a; recombinant integrase, activity class.
Take `Cc1nc(C)n(-c2cc(F)ccc2CNC(=O)c2nc3n(c(=O)c2O)CCOC32CCCC2)n1` [Example 130, Spiro[cyclopentane-1,9′(4′H)-pyrimido[2,1-c][1,4]oxazine]-2′-carboxamide, N-[[2-(3,5-dimethyl-1H-1,2,4-triazol-1-yl)-4-fluorophenyl]methyl]-6′,7′-dihydro-3′-hydroxy-4′-oxo-]: the IC50 lay within 0.001 to 0.01 µM.
The same measure, in the same setting: under `CN1CCn2c(nc(C(=O)NCc3ccc(F)cc3-n3cncn3)c(O)c2=O)C12CCCCC2` [Example 96, Spiro[cyclohexane-1,9′(6′H)-[4H]pyrazino[1,2-a]pyrimidine]-2′-carboxamide, N-[[4-fluoro-2-(1H-1,2,4-triazol-1-yl)phenyl]methyl]-7′,8′-dihydro-3′-hydroxy-8′-methyl-4′-oxo-] stands 0.001 to 0.01 µM; under `O=C(NCc1ccc(F)cc1-n1cncn1)c1nc2n(c(=O)c1O)CCOC21COC1` [Example 110, Spiro[oxetane-3,9′(4′H)-pyrimido[2,1-c][1,4]oxazine]-2′-carboxamide, N-[[4-fluoro-2-(1H-1,2,4-triazol-1-yl)phenyl]methyl]-6′,7′-dihydro-3′-hydroxy-4′-oxo-], 0.001 to 0.01 µM; under `CN1CCn2c(nc(C(=O)NCc3ccc(F)cc3-n3cncn3)c(O)c2=O)C12CCCC2` [Example 93, Spiro[cyclopentane-1,9′(6′H)-[4H]pyrazino[1,2-a]pyrimidine]-2′-carboxamide, N-[[4-fluoro-2-(1H-1,2,4-triazol-1-yl)phenyl]methyl]-7′,8′-dihydro-3′-hydroxy-8′-methyl-4′-oxo-], 0.001 to 0.01 µM.
